Earlier results as cited in US20070275075A1, “Ezetimibe compositions” (priority 2006, published 2007).

Assays:
[1] = not given; remark: listed apart in the source

O=C1[C@H](CC[C@H](O)c2ccc(F)cc2)[C@@H](c2ccc(O)cc2)N1c1ccc(F)cc1 [Ezetimibe, 1-(4-fluorophenyl)-3(R)-[3-(4-fluorophenyl)-3(S)-hydroxypropyl]-4(S)-(4-hydroxyphenyl)-2-azetidinone]
stability at ambient temperature: stable
solubility in ethanol, methanol, and acetone ([1]; ethanol, methanol, acetone): freely to very soluble
solubility in water ([1]; water): practically insoluble
